Data as given in US12564206B2, “Multi-supplement food-additive” (THE GOVERNING COUNCIL OF THE UNIVERSITY OF TORONTO, priority 2019, dated 2026).
Read-outs that look alike come from different tables or passages of the source.

Legend:
[1] = Accelerated kinetic study of folic acid and iodine degradation in spray solution; type: physicochemical; details: for degradation constant in spray solution: first order; for activation energy for degradation in the solution: Arrhenius plot
Description: An accelerated kinetic study was conducted to evaluate the stability of the micronutrients in the premixes and solution. The stability of folic acid and iodine in the spray solution was evaluated, and the stability of B12 in the various premixes was evaluated. The solution and premix were stored at 50, 60, 70 and 80 degrees C. for 7 days. For the solution, samples (250 mL) were stored in 400 mL Fisherbrand Glass Bottles. About 1 mL of the samples were collected from the bottles at days 1, 3, 5 and 7, and stored at −20 degrees C. before analysis. For the premix, 1 g was weighed into aluminium weighing dishes. At days 1, 3, 5 and 7, samples were pulverized in a mortar and pestle. Vitamin B12 was extracted with 0.1 M Na2CO3. The crude extract was filtered (0.45 um) and stored at −20 degrees C. before analysis.

[2] = Earlier double fortified salt, storage stability; type: physicochemical; details: 5 month period, ambient conditions
Excerpt: Applicant has previously attempted to develop folic acid and iodine spray solutions to investigate the stability of triple fortified salt containing iodine, folic acid and microencapsulated ferrous fumarate.

[3] = Stability of spray solutions on storage; details: for retained in spray solution: after 2 months of storage
Description: Formulation and Storage of Spray Solution: Seven sets of spray solutions were formulated, containing folic acid, vitamin B12, iodine, sodium ascorbate, sodium citrate and/or sodium carbonate, as described in Table 1. The stability of the solutions was monitored for 2 months at 25, 35, and 45 degrees C.
(§1) Folic Acid Analysis: For the spray solution, samples were diluted with 0.1 M Na2CO3 at ratio 1:1000 v/v and the absorbance of the resulting solution was read at 285 nm. For the salt samples, 5 g aliquots were dissolved in 0.1 M Na2CO3 (10 mL) in a falcon tube. The solution was mixed on a vortex mixer for 2 minutes and filtered with a 0.45 μm syringe filter. The absorbance of the filtrate was immediately read at 285 nm.
(§2) Iodine Analysis: Method 33.149, described by the Association of Official Analytical Chemists (AOAC), was used for iodine quantification in salt and spray solutions (Association of Official Analytical Chemists, 1984). In this method, iodate is reduced to iodine and titrated with sodium thiosulfate using a starch indicator.
Vitamin B12 Analysis: The iron-B12 premix was pulverized with a mortar and pestle. The pulverized premix (5 g) was weighed into 50 mL falcon tube, and 10 mL of RO water was added and mixed with a vortex mixer for 2 minutes. This was centrifuged for 2 minutes. The supernatant was filtered with a 0.45 micron filter. Vitamin B12 in the filtrate was quantified using UHPLC-MS.

[4] = Stability of folic acid and iodine in fortified salt on storage; details: for micronutrient retained in quadruple fortified salt: 6 months storage at 25, 35 and 45 degrees C, 60-70% RH, all cases
Description: However, for comparative study, a solution containing folic acid, iodine and vitamin B12 (spray solution 2 in Table 1) was also used. The solutions (2.5 mL) were sprayed on salt (1 kg) inside a ribbon blender and thoroughly mixed for 20 minutes. The salt samples were dried overnight. The dried salt was returned to the ribbon blender and mixed with premix samples for 2 minutes. Iron premix (i.e. particles containing iron without any B12 or other fortificants) and three of the four iron-B12 premixes were used (adding B12 to TiO2 was not further tested). The target concentrations of the fortificants were 1000 microgram/gram iron, 50 microgram/gram iodine, 25 microgram/gram folic acid and 0.25 microgram/gram vitamin B12.
The fortified salts were divided by solid sample splitter glassware into three portions. Each portion was stored at ambient conditions (25 degrees C.), 35 degrees C. and 60-70% RH, and 45 degrees C. and 60-70% RH. The stability of folic acid and iodine in the salt was monitored over a period of six months.
as §1, §2

[5] = cited from earlier work
[6] = 30 min, 2 mg/mL
Description: The effect of boiling on the stability of folic acid and vitamin B12 was assessed, in order to mimic food preparation. A known amount of folic acid (0.5 g) was weighed into 250 ml of boiling water. Boiling was continued for 30 minutes. At 1, 5, 10, 15, 20, 25, and 30 minutes, the solution was made up to 250 ml, and then 1 ml of the solution was measured out into a centrifuge vial. The same procedure was followed for B12.

[7] = L*a*b* colour analysis of salt sprayed with folic acid; type: physicochemical
Description: While this example was successful, it was observed that the addition of folic acid by spraying can impact the colour of the salt (i.e. a yellow color is observed), which may impact the acceptance of the salt. Accordingly, the inclusion of the folic acid in the premix was evaluated. […] The two other premix samples contained an iron micronutrient, folic acid, and vitamin B12; in one of these two, all of the micronutrients were in the core of the premix, while in the other, folic acid was separated from the iron micronutrient and vitamin B12 by a layer of TiO2.

[8] = Stability of vitamin B12 in iron-B12 premix on storage; type: physicochemical; details: room temperature, six months; premix made by three approaches (core, spray, HPMC)
Excerpt: Production of Iron-B12 Premix: Given the instability of vitamin B12 in the spray solutions (as described below with respect to FIG. 4), vitamin B12 was removed from the spray solutions and incorporated into separate particles with the iron micronutrient, as a multi-supplement food-additive, described above (also referred to herein as an ‘iron-B12 premix’). For the iron-B12 premix, 25% TiO2 was used for color masking, and 5% HPMC and 5% soy stearin as the encapsulating coating. […] The stability of vitamin B12 in each iron-B12 premix was evaluated for six months.
This was centrifuged for 2 minutes.

[9] = 12.5 microgram/gram folic acid in salt
[10] = 25 microgram/gram folic acid in salt

| stability in solution [3] | Compound | degradation constant in spray solution ([1]; 60 degrees C) | degradation constant in spray solution ([1]; 70 degrees C) | degradation constant in spray solution ([1]; 80 degrees C) | activation energy for degradation in the solution [1] | micronutrient retained in double fortified salt [2] | retained in spray solution [3] | micronutrient retained in quadruple fortified salt [4] | solubility in water [5] | also measured |
| --- | --- | --- | --- | --- | --- | --- | --- | --- | --- | --- |
| – | II [iodine, potassium iodate] | 0.0337 day⁻¹ | 0.0432 day⁻¹ | 0.0568 day⁻¹ | 6.092 kcal/mol | 100% | about 90% | 85-100% | – | stability in solution ([3]; the spray solutions (FIG. 4)): very stable; improvement of iodine stability with vitamin B12 in core vs other parts of the premix ([4]; QFS, 45 degrees C, six months): 6-15% |
| very stable | Nc1nc2ncc(CNc3ccc(C(=O)N[C@@H](CCC(=O)O)C(=O)O)cc3)nc2c(=O)[nH]1 [folic acid] | 0.0349 day⁻¹ | 0.0411 day⁻¹ | 0.0531 day⁻¹ | 4.924 kcal/mol | 100% | ~80% | 74-97% | sparingly soluble | retained after boiling [6]: About 93%; L* of salt [7, 9]: 95.43; a* of salt [7, 9]: −1.53; b* of salt [7, 9]: 8.44; L* of salt [7, 10]: 94.27; a* of salt [7, 10]: −2.92; b* of salt [7, 10]: 13.50; improvement of folic acid stability with vitamin B12 in core vs other parts of the premix ([4]; QFS, six months, all temperatures): 11-15% |
| very stable | vitamin B12 | – | – | – | – | – | – | – | very soluble | vitamin B12 lost in spray solution ([3]; spray solution at lower pH (8), 2 months storage): > 50%; vitamin B12 lost in spray solution ([3]; spray solution pH 9, 2 months storage at 45 degrees C and 70% RH): ~100%; B12 retained in iron-B12 premix [8]: over 97% |
